Data on 1 molecule can be found in US20240174633A1, “CRYSTALLINE FORMS OF (4S)-24-CHLORO-4-ETHYL-73-FLUORO-35-METHOXY-32,5-DIOXO-14-(TRIFLUORO-METHYL)-32H-6-AZA-3(4,1)-PYRIDINA-1(1)-[1,2,3]TRIAZOLA-2(1,2),7(1)-DIBENZENAHEPTAPHANE-74-CARBOXAMIDE” (Bayer Aktiengesellschaft, priority 2021, published 2024).

The structures appear in SMILES notation.

The target of one test is human plasma kallikrein (Homo sapiens (Human), UniProt P03952). Kind of test: Determination of the plasma kallikrein activity (fluorogenic peptide substrate). The format is biochemical. Particulars: substrate H-Pro-Phe-Arg-AMC. On the procedure:
To determine the plasma kallikrein inhibition of the substances according to the invention, a biochemical test system is used which utilizes the reaction of a peptidic plasma kallikrein substrate to determine the enzymatic activity of human plasma kallikrein. Here, plasma kallikrein cleaves from the peptidic plasma kallikrein substrate the C-terminal aminomethylcoumarin (AMC), the fluorescence of which is measured. The determinations are carried out in microtitre plates.
(§1) Test substances are dissolved in dimethyl sulfoxide and serially diluted in dimethyl sulfoxide (3000 μM to 0.0078 M; resulting final concentrations in the test: 50 μM to 0.00013 μM). In each case 1 μl of the diluted substance solutions is placed into the wells of white microtitre plates from Greiner (384 wells). […] After 15 min of incubation, the enzyme reaction is started by addition of 20 μl of the substrate H-Pro-Phe-Arg-AMC dissolved in assay buffer (10 μM in assay buffer) from Bachem, the mixture is incubated at room temperature (22° C.) for 30 min and fluorescence is then measured (excitation: 360 nm, emission: 460 nm). The measured emissions of the test batches with test substance are compared to those of control batches without test substance (only dimethyl sulfoxide instead of test substance in dimethyl sulfoxide), and IC50 values are calculated from the concentration/activity relationships. […]

A further test has as its target human factor XIa (Homo sapiens (Human), UniProt P03951). Kind of test: Measurement of FXIa inhibition (fluorogenic peptide substrate). The format is biochemical. Particulars: substrate Boc-Glu(OBzl)-Ala-Arg-AMC. How it is done: The factor XIa inhibition of the substances according to the invention is determined using a biochemical test system which utilizes the reaction of a peptidic factor XIa substrate to determine the enzymatic activity of human factor XIa. Here, factor XIa cleaves from the peptidic factor XIa substrate the C-terminal aminomethylcoumarin (AMC), the fluorescence of which is measured. The determinations are carried out in microtitre plates.
as §1, with “to 0.0078 μM; resulting final” for “to 0.0078 M; resulting final”, “test: 50 µM to 0.00013” for “test: 50 μM to 0.00013”, “of the factor XIa substrate Boc-Glu(OBzl)-Ala-Arg-AMC” for “of the substrate H-Pro-Phe-Arg-AMC”, “XIa substrate Boc-Glu(OBzl)-Ala-Arg-AMC dissolved in” for “the substrate H-Pro-Phe-Arg-AMC dissolved in”

Sequence of human plasma kallikrein (P03952 391-638): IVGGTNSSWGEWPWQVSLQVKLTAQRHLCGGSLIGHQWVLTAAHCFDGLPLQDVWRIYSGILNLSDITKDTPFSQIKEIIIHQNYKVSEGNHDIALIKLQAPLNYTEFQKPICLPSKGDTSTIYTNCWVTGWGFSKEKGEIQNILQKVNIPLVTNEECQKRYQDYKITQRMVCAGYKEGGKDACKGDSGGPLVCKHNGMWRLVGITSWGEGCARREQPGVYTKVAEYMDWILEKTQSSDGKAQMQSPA
Sequence of human plasma kallikrein (P03952 20-390 partner): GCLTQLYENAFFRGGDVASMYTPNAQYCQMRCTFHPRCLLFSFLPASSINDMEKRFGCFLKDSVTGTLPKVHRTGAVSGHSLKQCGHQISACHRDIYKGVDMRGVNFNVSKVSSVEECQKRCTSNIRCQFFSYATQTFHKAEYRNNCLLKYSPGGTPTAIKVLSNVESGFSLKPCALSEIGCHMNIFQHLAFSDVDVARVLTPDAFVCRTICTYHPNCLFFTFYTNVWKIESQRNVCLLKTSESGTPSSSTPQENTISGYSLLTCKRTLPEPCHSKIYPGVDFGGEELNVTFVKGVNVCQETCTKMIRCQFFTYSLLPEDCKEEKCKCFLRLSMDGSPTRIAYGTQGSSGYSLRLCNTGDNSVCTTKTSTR
Sequence of human factor XIa (P03951 388-625): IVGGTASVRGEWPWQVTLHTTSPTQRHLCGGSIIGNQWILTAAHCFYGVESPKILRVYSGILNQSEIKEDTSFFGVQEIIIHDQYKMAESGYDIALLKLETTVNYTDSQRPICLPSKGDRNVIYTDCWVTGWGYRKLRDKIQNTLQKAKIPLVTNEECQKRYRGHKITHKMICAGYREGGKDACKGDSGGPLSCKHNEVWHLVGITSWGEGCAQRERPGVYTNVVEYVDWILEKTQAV
Sequence of human factor XIa (P03951 19-387 partner): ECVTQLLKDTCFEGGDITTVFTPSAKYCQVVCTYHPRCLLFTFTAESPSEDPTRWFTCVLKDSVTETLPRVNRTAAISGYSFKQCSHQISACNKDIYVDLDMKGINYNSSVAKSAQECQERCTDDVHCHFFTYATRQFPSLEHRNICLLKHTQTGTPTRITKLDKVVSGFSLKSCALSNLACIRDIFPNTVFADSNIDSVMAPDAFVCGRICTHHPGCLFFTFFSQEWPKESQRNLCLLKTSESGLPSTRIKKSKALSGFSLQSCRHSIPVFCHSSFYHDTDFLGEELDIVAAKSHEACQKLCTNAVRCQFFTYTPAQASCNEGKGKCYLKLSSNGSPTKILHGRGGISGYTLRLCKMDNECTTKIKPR

For orientation: IC50 means the midpoint of a concentration-inhibition curve. Higher therefore signals a need for much substance. As for `COc1cn([C@@H](C)C(=O)Nc2ccc(C(N)=O)c(F)c2)c(=O)cc1-c1c(-n2cc(C(F)(F)F)nn2)ccc(Cl)c1F` [Example 2.4, 4-({(2S)-2-[4-{3-Chloro-2-fluoro-6-[4-(trifluoromethyl)-1H-1,2,3-triazol-1-yl]phenyl}-5-methoxy-2-oxopyridin-1(2H)-yl]propanoyl}amino)-2-fluorobenzamide], the concentration for half-maximal inhibition (IC50) at human plasma kallikrein stood at 3.4 nM; against human factor XIa, 1.2 nM.
